Consider five compounds from patent US9121015B2, “Peptide having a vascularization-suppressing activity and a use therefor” (CATHOLIC UNIVERSITY INDUSTRY ACADEMIC COOPERATION FOUNDATION, priority 2010, dated 2015).

Entries after “also recorded” stand apart in the source; their conditions may differ. Read-outs that look alike come from different tables or passages of the source. No end group written: not given here.

Series [1] deals with A549 lung cancer cell line. It is filed as cell-based, human. Particulars: 48 hr, 5% FBS. The procedure: The Effect of the peptides on cancer cell proliferation was investigated using A549 lung cancer cell line. A549 cells were seeded to 96 well plate at 1,000 cells/well and incubated in DMEM medium containing 10% FBS for 48 h. After treatment of each peptide for 30 min, the proliferation of cancer cells was stimulated by 5% FBS alone. After each incubation time, MTS solution was added to each well and incubated for 2 h. Assessment of proliferation was determined by measurement of absorbance at 490 nm.

Series [2] has as its system in vivo angiogenesis. Kind of series: in vivo Matrigel plug assay, hemoglobin by Drabkin's reagent. Details: species or system C57/BL6 mice. Particulars: for plugs with excessive amount of hemoglobin exceeding 500 mg/dl / hemoglobin amount of Matrigel plug, median: 7 days; for hemoglobin amount / in vivo angiogenesis inhibition (words): compared to control group; for hemoglobin amount of Matrigel plug, median: mice, subcutaneous Matrigel with bFGF, VEGF, heparin and peptide. The procedure: In order to examine the anti-angiogenic activity of the respective peptides in vivo, Matrigel plug assay was performed. 7-week-old C57/BL6 mice (SLC, Japan) were injected subcutaneously in the midventral abdominal region with 0.6 ml of Matrigel containing the bFGF (100 ng/ml), VEGF (100 ng/ml) and heparin (15 unit) with or without peptide. After 7 days, mice were sacrificed by inhalation of CO2 gas and the Matrigel plugs were removed and photographed. To evaluate the formation of vessels, the amount of hemoglobin was quantified using Drabkin's reagent (Sigma). The Matrigel plug was sonicated in RBC lysis buffer (Sigma) and centrifuged at 14000 rpm for 20 min. The supernatant was mixed with Drabkin's reagent and incubated for 3 min. Then, absorbance was measured at 540 nm.

The test system of series [3] is HUVECs. Kind of series: tube formation assay on Matrigel. The format is cell-based, human. Particulars: 100 μM; for tube formation inhibited/decreased: compared to control group, tube lengths. The procedure: Chilled Matrigel (150 μl, BD Bioscience) was placed in a pre-chilled 48-well plate and incubated for 30 min at 37° C. HUVECs were treated with each peptide for 30 min and then added to the top of the solidified Matrigel. After 19 h of incubation, the tubes formed were photographed. Images were analyzed using Image J <http://rsb.info.nih.gov/ij/> to determine tube lengths.
That is, the incubated HUVEC with a new serum-free medium was incubated for 2˜4 hr and harvested the cells. After treating the harvested cells at 100 μM with the respective peptides for 30 min, the cells on the hardened Matrigel was incubated for 11˜19 hr, while observing the degree of tube formation, and measured and calculated the lengths of the tubes formed. As a result, it was observed that all the tested peptides, while varying degrees, inhibited tube formation. […] UP3 decreased tube formation by 47%, and TP1 by approximately 37%.

For series [4], the system named is MDAMB231 breast cancer cells. Kind of series: cancer cell migration, modified Boyden chamber assay, EGF-induced. The format is cell-based, human. The protocol:
In order to investigate the effect of the respective peptides on cancer cell migration, modified Boyden chamber assay was conducted. MDAMB231 breast cancer cells have EGF receptor and have ability to migrate and metastasize. […] The above results also support that the peptides of the present invention can inhibit cancer cell metastasis.

The test system of series [5] is HUVECs. Kind of series: HUVEC proliferation, MTS assay. The format is cell-based, human. To be noted: for cell viability reduced: 100 μM, compared to untreated control, 5% FBS and 10 ng/ml bFGF; for inhibition of growth of endothelial cells: 5% FBS and bFGF stimulated. The protocol:
Cell proliferation was measured by MTS assay. HUVECs were seeded to gelatin-coated 96-well plate at 1,000 cells/well and incubated in M199 supplement media for 48 h. After 48 h, cells were incubated in serum free M199 medium for 4 h, and then treated with each peptide at indicated concentrations for 30 min. Then, the cells were stimulated with 5% FBS and 10 ng/ml bFGF, and were incubated for 48 or 72 hr. Then, assessment of cell proliferation was done by MTS assay.

In series [6] the test system is HUVECs. Kind of series: endothelial cell migration assay, modified Boyden chamber, VEGF-induced. The format is cell-based, human. Particulars: for cell migration reduced: VEGF-induced, compared to untreated control; for inhibition of VEGF-induced migration of endothelial cells: 0.1˜100 μM. The protocol:
In order to evaluate the effect of the peptides of the present invention on the cell migration, the present inventors conducted cell migration assay using modified Boyden chamber. HUVECs were treated with each peptide for 30 min and then, the cells were allowed to migrate toward VEGF (2˜5 ng/ml). After 5 h, the migrated cells were fixed and stained with hematoxilin and eosin. The stained cells were photographed and counted.

Where [7] appears, read: 100 μM, compared to untreated control.

As to PWNSMILIGKVYTAQ [TP3, PWNSMILIGKVYTAQ], the “inhibition of proliferation of A549 cancer cells (words)” value (from here on “inhibition of proliferation … (words)”) was “concentration-dependently inhibited proliferation” in series [1] and “inhibited proliferation of cancer cells concentration-dependently” in series [1] (listed as TP-3). Moreover, in series [2], the “plugs with excessive amount of hemoglobin exceeding 500 mg/dl” value (“plugs with excessive amount” below) was “showed such plugs with excessive hemoglobin”. Moreover, the tube formation inhibited/decreased entry in series [3] is recorded as “approximately 70%”. Besides, in series [4], the “inhibition of migration of breast cancer cell” value is “concentration-dependently inhibited the migration”. Besides, the cell migration decreased in series [4] (1 μM, compared to untreated control) is recorded as approximately 30%; in series [4] (setting [7]), approximately 69.4%. Also, the cell viability reduced entry in series [5] was “approximately 26.7%”. Also, the “inhibition of growth of endothelial cells” value in series [5] is given as “inhibited growth of endothelial cells”. The compound further had a cell migration reduced in series [6] (0.1 μM) of 15.4%.
In the case of `CC(C)C[C@H](NC(=O)[C@@H](NC(=O)[C@@H](NC(=O)[C@H](C)NC(=O)[C@H](CO)NC(=O)[C@H](CC(N)=O)NC(=O)[C@H](Cc1c[nH]c2ccccc12)NC(=O)[C@@H]1CCCN1)[C@@H](C)O)C(C)C)C(=O)N[C@@H](CCC(N)=O)C(=O)N[C@@H](CCC(N)=O)C(=O)N[C@H](C(=O)N[C@@H](Cc1ccc(O)cc1)C(=O)N[C@@H](Cc1c[nH]cn1)C(=O)N[C@@H](C)C(=O)N[C@@H](Cc1c[nH]cn1)C(=O)O)[C@@H](C)O` [UP3, PWNSATVLQQTYHAH], in series [2], the “plugs with excessive amount” value is reported as “showed such plugs with excessive hemoglobin”; the “hemoglobin amount / in vivo angiogenesis inhibition (words)” value was “reduced median value”; the “hemoglobin amount of Matrigel plug, median” value was 4.8 mg/dL. In addition, in series [2] (listed as UP-3), the “hemoglobin amount / in vivo angiogenesis inhibition (words)” value is “decreased amount of hemoglobin”. In addition, the tube formation inhibited/decreased in series [3] came out at 47%. In addition, the “inhibition of migration of breast cancer cell” value in series [4] is listed as “concentration-dependently inhibited the migration”. The compound further returned a cell migration decreased in series [4] (setting [7]) of 81%. In addition, in series [5], the cell viability reduced result is “approximately 24%” and the “inhibition of growth of endothelial cells” value is “inhibited growth of endothelial cells”. In series [6] (100 μM), this compound registered a cell migration reduced of 28.6%. Further, in series [6], the “inhibition of VEGF-induced migration of endothelial cells” value is listed as “concentration-dependently inhibited; also recorded: significantly inhibition at concentration of 10 μM or above”.
As for PWCYVQVGLKPLVQE [UP7, PWCYVQVGLKPLVQE], the “inhibition of proliferation … (words)” value in series [1] is reported as “concentration-dependently inhibited proliferation”. In addition, the “inhibition of proliferation … (words)” value in series [1] (listed as UP-7) is recorded as “inhibited proliferation of cancer cells concentration-dependently”. Besides, in series [2], the “plugs with excessive amount” value was “did not exhibit such plugs”; the “hemoglobin amount / in vivo angiogenesis inhibition (words)” value is listed as “remarkably reduced hemoglobin amount”; the “hemoglobin amount of Matrigel plug, median” value amounted to 16.3 mg/dL. The “hemoglobin amount / in vivo angiogenesis inhibition (words)” value in series [2] (listed as UP-7) is given as “decreased amount of hemoglobin; also recorded: most potent inhibitory activity against in vivo angiogenesis”. In addition, the “inhibition of tube formation” value in series [3] is “did not show any inhibitory effect”. For the same compound, the “inhibition of migration of breast cancer cell” value in series [4] is given as “concentration-dependently inhibited the migration; also recorded: most potent inhibitory effect”. Also, in series [4] (10 μM), the cell migration decreased entry is on record as “approximately 66%”. The cell migration decreased in series [4] (setting [7]) is recorded as 88%. For the same compound, in series [5], the cell viability reduced amounted to 69.6% and the “inhibition of growth of endothelial cells” value is recorded as “inhibited growth of endothelial cells; also recorded: strong inhibition effect”. For the same compound, in series [6] (100 μM), the cell migration reduced result is “approximately 72%”. Moreover, the “inhibition of VEGF-induced migration of endothelial cells” value in series [6] is “concentration-dependently inhibited”.
PWCHVLKNRRLTWEY [TP7, PWCHVLKNRRLTWEY]: the “inhibition of proliferation … (words)” value in series [1] is “concentration-dependently inhibited proliferation”. Also, the “inhibition of proliferation … (words)” value in series [1] (listed as TP-7) is reported as “inhibited proliferation of cancer cells concentration-dependently”. In series [2], the “plugs with excessive amount” value is “did not exhibit such plugs”; the “hemoglobin amount / in vivo angiogenesis inhibition (words)” value is “decreased amount of hemoglobin”; the “hemoglobin amount of Matrigel plug, median” value is 37.3 mg/dL. Moreover, the “median value of hemoglobin amount reduced to (vs untreated control)” value in series [2] (without statistical significance) is given as approximately 51%. Further, the tube formation inhibited/decreased result in series [3] is “approximately 93%”. In addition, in series [4], the “inhibition of migration of breast cancer cell” value is given as “concentration-dependently inhibited the migration”. Moreover, the cell migration decreased in series [4] (setting [7]) came to 66.3%. In series [5], the cell viability reduced is given as 65.1% and the “inhibition of growth of endothelial cells” value is on record as “inhibited growth of endothelial cells; also recorded: strong inhibition effect”. Besides, in series [6] (100 μM), the cell migration reduced was 31.4%. In addition, the “inhibition of VEGF-induced migration of endothelial cells” value in series [6] is “concentration-dependently inhibited”.
FGNGSAY [TP1, reference compound]: the “plugs with excessive amount” value in series [2] was “showed such plugs with excessive hemoglobin”. For the same compound, the tube formation inhibited/decreased result in series [3] is on record as “approximately 37%”. Also, in series [6] (100 μM), the “inhibition of migration of endothelial cells” value was “did not inhibit the migration of endothelial cells”.
